Test results as given in PMC7822819, “Discovery of a new class of integrin antibodies for fibrosis” (Scientific Reports, 2021).
Where “and” joins values, the source holds several entries; their conditions need not be identical. Identical values can stand only once. Values belong to the compound of their own block, whether it stands above or below them.

Key:
[1] = tested on: bleomycin-induced lung fibrosis; assay: Bleomycin-induced lung fibrosis mouse model; format: in vivo; conditions: BLM mice, Nintedanib 60 mpk po qd
Procedure: Adult male C57BL/6 mice (Taconic, Rensselaer, NY) were housed in a temperature and humidity-controlled facility with a 12 h light: 12-h dark cycle. Animals had ad libitum access to food (Purina Rodent Chow 5053, LabDiet, St. Louis, MO) and water. All procedures utilizing experimental animals were conducted in accordance with the Guide for the Care and Use of Laboratory Animals, and experimental procedures were reviewed and approved by the Institutional Animal Care and Use Committee at MRL, Kenilworth, NJ. For osmotic minipump implantation, TFA salt of MK-0429 was formulated in 50% DMSO/50% H2O at a concentration of 416 mg/mL. MK-0429 or vehicle solution were filled in minipumps (Alzet, # 1007D, flow rate 0.5 μL/h). Minipumps were placed in mice subcutaneously in a pocket on the back between the shoulder blades. A small incision was made and a subcutaneous pocket formed by blunt dissection. A sterile minipump was inserted into the subcutaneous pocket. The incision was closed with staples or non-absorbable suture or absorbable (subcuticular) suture. The minipumps were used for continuous drug delivery for 2 weeks. Mice at 12 ~ 13 weeks of age were randomized to 5 groups: saline, bleomycin instillation with vehicle (osmotic minipump), bleomycin instillation with MK-0429 treatment, bleomycin instillation with vehicle oral treatment, and bleomycin instillation with Nintedanib treatment. All mice were anaesthetized with isoflurane. Bleomycin was dosed by intra-tracheal (i.t) instillation in a volume of 50 µl, at a dose of 1unit /kg body weight. After instillation, mice were kept in a heads-up position for 2–5 min before putting into cages. MK-0429 (200 mg/kg) was administered by Osmotic pump from day 5 to day 14 and Nintedanib (60 mg/kg) was administered, p.o., q.d., for 14 days. Vehicle was dosed orally at 10 am daily from the day 5 to the end of the studies and dosing volume was 10 mL/kg. For plasma PK analysis, an aliquot of 50 μL plasma was spiked into a 96-well plate, and 200 μL of acetonitrile containing internal standard were added for protein precipitation. The mixture was vortexed, centrifuged at 4000 rpm for 20 min. 50 μL of supernatant were mixed with 200 μl H2O and the final solution were injected for LC–MS/MS analysis. The methods for quantitative analysis were developed on UPLC (Waters) chromatographic system equipped with an API4000 QTrap mass spectrometer (Applied Biosystems, Concord, Ontario, Canada). Analyst 1.5 software packages (Applied Biosystems) were used to control the LC–MS/MS system and data acquisition and processing. Upon completion of the study, animals were euthanized and tissues were collected for histological assessment. Lung tissues were perfused with 10% formalin, fixed for 24 h, and then paraffin embedded. Tissue sections were stained with hematoxylin & eosin (H&E) and Masson’s trichrome, subsequently evaluated under light microscope. The severity of histopathologic changes and fibrosis in the lung were graded as described previously by pathologists[51],[52]. Following deparaffinization and rehydration, each lung tissue section was processed to identify αSMA deposition by immunohistochemistry. The primary antibodies used were αSMA antibody from Sigma. The Aperio ScanScope XT Slide Scanner (Aperio Technologies) system was used to capture whole slide digital images with a 20 × objective. Digital images were managed using Aperio Spectrum. The positive stains were identified and quantified using a macro created from a color deconvolution algorithm (Aperio Technologies). Statistical analysis was performed by using One-way ANOVA followed by Tukey’s test.

[2] = Plasma total drug concentration in bleomycin model (LC-MS/MS); format: in vivo, mouse; conditions: 2 h after last dose, Day 19; MK-0429 200 mpk minipump, Nintedanib 60 mpk po qd; mean ± SE
Procedure: Mice at 12 ~ 13 weeks of age were randomized to 5 groups: saline, bleomycin instillation with vehicle (osmotic minipump), bleomycin instillation with MK-0429 treatment, bleomycin instillation with vehicle oral treatment, and bleomycin instillation with Nintedanib treatment. All mice were anaesthetized with isoflurane. Bleomycin was dosed by intra-tracheal (i.t) instillation in a volume of 50 µl, at a dose of 1unit /kg body weight. After instillation, mice were kept in a heads-up position for 2–5 min before putting into cages. MK-0429 (200 mg/kg) was administered by Osmotic pump from day 5 to day 14 and Nintedanib (60 mg/kg) was administered, p.o., q.d., for 14 days. Vehicle was dosed orally at 10 am daily from the day 5 to the end of the studies and dosing volume was 10 mL/kg. For plasma PK analysis, an aliquot of 50 μL plasma was spiked into a 96-well plate, and 200 μL of acetonitrile containing internal standard were added for protein precipitation. The mixture was vortexed, centrifuged at 4000 rpm for 20 min. 50 μL of supernatant were mixed with 200 μl H2O and the final solution were injected for LC–MS/MS analysis. The methods for quantitative analysis were developed on UPLC (Waters) chromatographic system equipped with an API4000 QTrap mass spectrometer (Applied Biosystems, Concord, Ontario, Canada). […]

[3] = tested on: normal human lung fibroblasts; assay: TGFβ-induced αSMA high-content imaging; format: cell-based; conditions: 10 μM, 30 min pre-treatment, TGFβ 5 ng/mL, 48 h
Procedure: (§1) Normal human lung fibroblasts (Lonza) and Primary Human IPF Lung Parenchymal Fibroblasts (Donor2) (BioIVT, #PCR-70-0214) were incubated at 37 °C and 5% CO2. To induce fibrotic response in primary cells, a final concentration of 5 ng/ml of recombinant human TGFβ1 (BioLegend, #580702) was added to the culture media and treated for 24 ~ 48 h. Anti-TGFβ neutralizing antibody (1D11) and the isotype control mouse IgG1 were from BioXcell. SB-525334 and bleomycin were from Sigma. MK-0429 was synthesized by Merck & Co., Inc., Kenilworth, NJ, USA. CHOK1-integrin stable lines were cultured in DMEM/F12, Glutamax (Gibco #10565018), 10% FBS (Gibco 310091148), 1 × Pen/Strep (Gibco 315140-148), and 6 ug/mL Puromycin (Gibco #A1113803).
(§2) Primary cells (passage 3–5) were grown on Cell carrier Ultra, col1 coated 96-well plates (Perkin Elmer, #6055700) at a density of 25,000 cells/well. Once the cells adhere, they were starved in serum free media for 24 h followed by addition of treatments i.e. 5 ng/mL TGFβ (Biolegend #580702) ± inhibitors. Cells were pre-treated with inhibitors for 30 min prior to the addition of TGFβ stimulation. 48hours post treatment, the cells were fixed in 4% methanol free paraformaldehyde (ThermoFisher Scientific #28908) for 20 min at room temperature and incubated with anti-alpha smooth muscle Actin antibody (Abcam #ab7817) at 1:4000 overnight at 4 °C. […]

[4] = tested on: IPF patient lung fibroblasts; assay: TGFβ-induced αSMA high-content imaging; format: cell-based, human; conditions: TGFβ 5 ng/mL, 48 h, read-out: IC50 TGFβ-mediated αSMA induction
Procedure: as §1, §2

[5] = treatment from day 5 for 14 days, MK-0429 200 mpk osmotic minipump, vs BLM-vehicle

Mean plasma total drug concentration [2]: 656.1 ng/mL and 656 ± 229 ng/mL
SMILES: COC(=O)c1ccc2c(c1)NC(=O)/C2=C(\Nc1ccc(N(C)C(=O)CN2CCN(C)CC2)cc1)c1ccccc1 [Nintedanib]
TIMP-1 content in BALF ([1]; 14 days treatment, MK-0429 200 mpk minipump): significantly decreased
Modified Ashcroft score of mouse lung [1, 5]: significantly improved
Total inflammation area in mouse lungs [1, 5]: decreased
αSMA immunohistochemistry in lung [1, 5]: significantly decreased
Body weight vs bleomycin group ([1]; MK-0429 200 mpk minipump): no significant body weight difference

SMILES: Cc1cccc(-c2[nH]c(C(C)(C)C)nc2-c2ccc3nccnc3c2)n1 [SB-525334]
αSMA intensity and percentage of stimulated cells following TGFβ treatment [3]: significantly reduced
IC50 [4]: 56 ± 22 nM
